Patent US9850282B2, “Stable pentadecapeptide salts, a process for preparation thereof, a use thereof in the manufacture of pharmaceutical preparations and a use thereof in therapy” (priority 2013, dated 2017)
Read-outs that look alike come from different tables or passages of the source. No end group written: not given here.

Experiments:
[1] = Collateral vessel presentation after femoral artery removal; type: in vivo, rats; conditions: 5-10 min after removal of femoral artery part; local 1 min bath (bepecin 10 μg/kg, L-arginine 100 mg/kg, L-NAME 5 mg/kg)
Source text: Bepecin has a particular beneficial effect after large blood vessel removal. Unlike L-NAME and L-arginine, bepecin rapidly bridges defect between the stumps of the vessel, thus even in the case of the worst scenario, rapidly reorganizing blood supply. Part of femoral artery in rats (between a. epigastrica caudalis and a. femoralis circumflexa lateralis) was removed in order to investigate collateral vessel presentation within vascular defect following formation of critical size vascular defect. Collateral vessel presentation within vascular defect was assessed according to the method described for microangiographic assessment in Cardiovasc Res. 1997 September; 35(3): 547-52. Thermographic imaging was performed using an infrared camera.

HSV-1 and HSV-2 = experiment: Newborn mice, intracerebral inoculation with HSV-1 and HSV-2; type: in vivo; conditions: lethally infected newborn mice; agents applied 48 or 72 hours after viral infection; bepecin 10 and 100 μg/kg, acyclovir 10 and 100 mg/kg
[2] = Anaphylactoid reaction induced by dextran and/or egg white; type: in vivo, rats, mouse; conditions: dextran and/or egg white i.v.; bepecin 10 μg, 1 μg, 10 ng, 10 pg/kg; clomipramine 20 mg/kg, cimetidine 10 mg/kg alone
[3] = Stability in water solutions (1 g/100 ml) at 50° C.; type: physicochemical; conditions: for Pentadecapeptide content decrement in water at 50° C./time (hours): 20: 20 hours; for Pentadecapeptide content decrement in water at 50° C./time (hours): 65: 65 hours; for Pentadecapeptide content decrement in water at 50° C./time (hours): 148: 148 hours; for Pentadecapeptide content decrement in water at 50° C./time (hours): 388: 388 hours; for Pentadecapeptide content decrement in water at 50° C./time (hours): start/0: start/0 hours
Experimental: (§1) This addition will be in the range from 0.5 mg to 3.0 mg per 1 mg of bepecin. […] The stability of bepecin salt with L-arginine in water solutions was determined after incubation of aqueous salt solutions in concentration 1 g/100 ml, at 50° C., and in a separate test in very stringent conditions: at 100° C., where the decomposition was determined after one hour.

[4] = Accelerated ageing at 50° C. and relative humidity of 65%; type: physicochemical
[5] = 1 g/100 ml of water, 20° C., 253.7 nm, 70 min
Acute toxicity = type: in vivo, Wistar Albino rats; conditions: 1 g/kg body weight, intraperitoneally, intravenously or intragastrically
[6] = Stability in water at 100° C., 1 hour; type: physicochemical
Experimental: as §1

[7] = 37° C.; for Pentadecapeptide content decrement (rel. %) in gastric juice at pH = 2.0, 2.5 hours: 150 min; for Pentadecapeptide content decrement (rel. %) in gastric juice at pH = 4.0, 6 hours: 360 min; for Pentadecapeptide content decrement (rel. %) in gastric juice at pH = 4.0, 7 hours: 420 min; for Pentadecapeptide content decrement (rel. %) in gastric juice at pH = 4.0, 8 hours: 480 min; for Pentadecapeptide content decrement (rel. %) in gastric juice at pH = 2.0, 1.5 hours: 90 min
in vitro = conditions: artificial gastric juice with pepsin, 37° C.
[8] = simulated gastric fluid, 37° C.
[9] = intravenously, orally or intraperitoneally, 10 ng to 100 mg/kg; cited from earlier work
[10] = Bleeding and thrombocytopenia after amputation; type: in vivo, rats; conditions: bepecin by itself
Experimental: Bepecin was administered intraperitoneally, intravenously or intragastrically (10 μg/kg, 10 ng/kg body weight).

[11] = pH 2, Pentadecapeptide content decrement (rel. %) in gastric juice at pH = 2.0, 1.0 hours, pH 2.0, 1.0 h
[12] = pH 2, Pentadecapeptide content decrement (rel. %) in gastric juice at pH = 2.0, 2.0 hours, pH 2.0, 2.0 h
[13] = pH 4, Pentadecapeptide content decrement (rel. %) in gastric juice at pH = 4.0, 3 hours, pH 4.0, 3 h
[14] = pH 2, Pentadecapeptide content decrement (rel. %) in gastric juice at pH = 2.0, 0.5 hours, pH 2.0
[15] = pH 3, Pentadecapeptide content decrement (rel. %) in gastric juice at pH = 3.0, 0.5 hours, pH 3.0
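Throughout, for Pentadecapeptide content decrement (rel. %) in gastric juice at pH = 2.0, 0 hours: peptide salt at 10 mg/5 ml incubated in artificial gastric juice (HCl, NaCl, pepsin 1.0 g/l) at the listed pH and 37° C, peptide content tracked over time.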
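Throughout, for Pentadecapeptide content decrement (rel. %) in gastric juice at pH = 2.0, 2.5 hours: peptide salt at 10 mg/5 ml incubated in artificial gastric juice (HCl, NaCl, pepsin 1.0 g/l) at the listed pH and 37° C, peptide content tracked over time.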
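Throughout, for Pentadecapeptide content decrement (rel. %) in gastric juice at pH = 3.0, 0 hours: peptide salt at 10 mg/5 ml incubated in artificial gastric juice (HCl, NaCl, pepsin 1.0 g/l) at the listed pH and 37° C, peptide content tracked over time.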
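Throughout, for Pentadecapeptide content decrement (rel. %) in gastric juice at pH = 3.0, 3.0 hours: peptide salt at 10 mg/5 ml incubated in artificial gastric juice (HCl, NaCl, pepsin 1.0 g/l) at the listed pH and 37° C, peptide content tracked over time.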

In the case of COC(=O)[C@@H](N)CCCNC(=N)N[N+](=O)[O-] [L-NAME], the “Collateral vessel presentation within vascular defect” value [1] is reported as “no collateral vessels are present”.

In the case of N=C(N)NCCC[C@H](N)C(=O)O [L-arginine], the “Collateral vessel presentation within vascular defect” value [1] is reported as “Tiny collateral vessels were present, yet without interconnections”.

For Nc1nc2c(ncn2COCCO)c(=O)[nH]1 [acyclovir], the “Survival time (max.)” value (HSV-1 and HSV-2) was 115 h and the “Survival time (min.)” value (HSV-1 and HSV-2) was 105 h.

In the case of CN/C(=N/CCSCc1nc[nH]c1C)NC#N [cimetidine], the “Effect on anaphylactoid reactions” value [2] is reported as “only poorly effective or even ineffective”.

For CN(C)CCCN1c2ccccc2CCc2ccc(Cl)cc21 [clomipramine], the “Effect on anaphylactoid reactions” value [2] was “only poorly effective or even ineffective”.

With Bepecin L-Lysine Salt (1:3) [Lys-BPC] the “Pentadecapeptide content decrement in water at 50° C./time (hours): 20” value [3] was 99.40%, the “Pentadecapeptide content decrement in water at 50° C./time (hours): 65” value [3] was 99.09% and the “Pentadecapeptide content decrement in water at 50° C./time (hours): 148” value [3] was 99.35%. For the same compound, the “Pentadecapeptide content decrement in water at 50° C./time (hours): 388” value [3] was 99.01%, the “Pentadecapeptide content decrement in water at 50° C./time (hours): start/0” value [3] was 99.07% and the “Pentadecapeptide content decrement in standing at 50° C. and relat. humidity 65%: 0 day” value ([4]; 0 day) was 99.47%. The “Pentadecapeptide content decrement in standing at 50° C. and relat. humidity 65%: 10 days” value ([4]; 10 days) was 99.24%, the “Pentadecapeptide content decrement in standing at 50° C. and relat. humidity 65%: 30 days” value ([4]; 30 days) was 99.27% and the “Pentadecapeptide content decrement in standing at 50° C. and relat. humidity 65%: 60 days” value [4] was 98.90%. For the same compound, the “Pentadecapeptide content decrement in standing at 50° C. and relat. humidity 65%: 90 days” value [4] was 99.28%.

In the case of “GEPPPGKPADDAGLV [Arg-BPC, bepecin L-arginine salt (1:2)]”, the “Stability of aqueous solution under ultraviolet light” value [5] is reported as “stable”, the Acute toxicity (Acute toxicity) is reported as “no toxicity and no adverse effects” and the “Pentadecapeptide content decrement in water at 100° C. - 1 hour: after 1 hour” value ([6]; after 1 hour) is reported as 99.08% (unchanged!). The “Pentadecapeptide content decrement in water at 100° C. - 1 hour: start” value ([6]; start) was 99.05%, the “Pentadecapeptide content decrement (rel. %) in gastric juice at pH = 2.0, 0 hours” value [7] was 100 rel. % and the “Pentadecapeptide content decrement (rel. %) in gastric juice at pH = 2.0, 2.5 hours” value [7] was 4.9 rel. %. For the same compound, the “Pentadecapeptide content decrement (rel. %) in gastric juice at pH = 3.0, 0 hours” value [7] was 100 rel. %, the “Pentadecapeptide content decrement (rel. %) in gastric juice at pH = 3.0, 3.0 hours” value ([7]; 180 min) was 90.0 rel. % and the “Pentadecapeptide content decrement (rel. %) in gastric juice at pH = 4.0, 0 hours” value ([7]; pH 4.0) was 100 rel. %. For the same compound, the “Pentadecapeptide content decrement (rel. %) in gastric juice at pH = 4.0, 6 hours” value ([7]; pH 4.0) was 84.6 rel. %, the “Pentadecapeptide content decrement (rel. %) in gastric juice at pH = 4.0, 7 hours” value ([7]; pH 4.0) was 73.5 rel. % and the “Pentadecapeptide content decrement (rel. %) in gastric juice at pH = 4.0, 8 hours” value ([7]; pH 4.0) was 67.2 rel. %. The “Pentadecapeptide content decrement in water at 50° C./time (hours): 20” value [3] was 98.97%, the “Pentadecapeptide content decrement in water at 50° C./time (hours): 65” value [3] was 99.04% and the “Pentadecapeptide content decrement in water at 50° C./time (hours): 148” value [3] was 99.10%. The “Pentadecapeptide content decrement in water at 50° C./time (hours): 388” value [3] was 99.01%, the pH ([3]; aqueous salt solution 1 g/100 ml) was 7.35 and the “Pentadecapeptide content decrement in water at 50° C./time (hours): start/0” value [3] was 99.05%. The remaining at 1 h (in vitro; [11]) was 13.5%, the remaining at 1.5 h, 10 mg/5 ml (in vitro; pH 2, Pentadecapeptide content decrement (rel. %) in gastric juice at pH = 2.0, 1.5 hours, pH 2.0, 1.5 h) was 8.2% and the remaining at 2 h (in vitro; [12]) was 6%. For the same compound, the remaining at 4 h, 10 mg/5 ml (in vitro; pH 3, Pentadecapeptide content decrement (rel. %) in gastric juice at pH = 3.0, 4.0 hours, pH 3.0, 4.0 h) was 87.2%, the remaining at 5 h, 10 mg/5 ml (in vitro; pH 3, Pentadecapeptide content decrement (rel. %) in gastric juice at pH = 3.0, 5.0 hours, pH 3.0, 5.0 h) was 84.9% and the remaining at 3 h, 10 mg/5 ml (in vitro; [13]) was 98.7%. For the same compound, the remaining at 4 h, 10 mg/5 ml (in vitro; pH 4, Pentadecapeptide content decrement (rel. %) in gastric juice at pH = 4.0, 4 hours, pH 4.0, 4 h) was 96.1%, the remaining at 5 h, 10 mg/5 ml (in vitro; pH 4, Pentadecapeptide content decrement (rel. %) in gastric juice at pH = 4.0, 5 hours, pH 4.0, 5 h) was 89.8% and the remaining at 0.5 h [8, 14] was 30.2%. For the same compound, the remaining at 0.5 h [8, 15] was 98.1%, the remaining at 1 h ([8]; pH 4, Pentadecapeptide content decrement (rel. %) in gastric juice at pH = 4.0, 1 hours, pH 4.0, 1 h) was 99.9% and the remaining at 2 h ([8]; pH 4, Pentadecapeptide content decrement (rel. %) in gastric juice at pH = 4.0, 2 hours, pH 4.0, 2 h) was 99.5%. The “Pentadecapeptide content decrement in standing at 50° C. and relat. humidity 65%: 60 days” value [4] was 98.96% and the “Pentadecapeptide content decrement in standing at 50° C. and relat. humidity 65%: 90 days” value [4] was 99.07%.

In the case of GEPPPGKPADDAGLV [BPC Na salt], the “Pentadecapeptide content decrement (rel. %) in gastric juice at pH = 2.0, 0 hours” value [7] is reported as 100 rel. %, the “Pentadecapeptide content decrement (rel. %) in gastric juice at pH = 2.0, 1.5 hours” value [7] is reported as 4.4 rel. % and the “Pentadecapeptide content decrement (rel. %) in gastric juice at pH = 2.0, 2.5 hours” value [7] is reported as 2.7 rel. %. The “Pentadecapeptide content decrement (rel. %) in gastric juice at pH = 3.0, 0 hours” value [7] was 100 rel. %, the “Pentadecapeptide content decrement (rel. %) in gastric juice at pH = 3.0, 3.0 hours” value ([7]; 180 min) was 40.2 rel. % and the “Pentadecapeptide content decrement (rel. %) in gastric juice at pH = 4.0, 0 hours” value ([7]; pH 4.0) was 100 rel. %. The “Pentadecapeptide content decrement (rel. %) in gastric juice at pH = 4.0, 3 hours” value ([7]; pH 4.0, 3 h, 180 min) was 94.6 rel. %, the “Pentadecapeptide content decrement (rel. %) in gastric juice at pH = 4.0, 6 hours” value ([7]; pH 4.0) was 76.3 rel. % and the “Pentadecapeptide content decrement (rel. %) in gastric juice at pH = 4.0, 7 hours” value ([7]; pH 4.0) was 68.2 rel. %. The “Pentadecapeptide content decrement (rel. %) in gastric juice at pH = 4.0, 8 hours” value ([7]; pH 4.0) was 60.9 rel. %.

For GEPPPGKPADDAGLV [BPC acetate], the “Pentadecapeptide content decrement (rel. %) in gastric juice at pH = 2.0, 0 hours” value [7] was 100 rel. %, the “Pentadecapeptide content decrement (rel. %) in gastric juice at pH = 2.0, 1.5 hours” value [7] was 4.75 rel. % and the “Pentadecapeptide content decrement (rel. %) in gastric juice at pH = 2.0, 2.5 hours” value [7] was 2.1 rel. %. The “Pentadecapeptide content decrement (rel. %) in gastric juice at pH = 3.0, 0 hours” value [7] was 100 rel. %, the “Pentadecapeptide content decrement (rel. %) in gastric juice at pH = 4.0, 0 hours” value ([7]; pH 4.0) was 100 rel. % and the “Pentadecapeptide content decrement (rel. %) in gastric juice at pH = 4.0, 6 hours” value ([7]; pH 4.0) was 48.8 rel. %. For the same compound, the “Pentadecapeptide content decrement (rel. %) in gastric juice at pH = 4.0, 7 hours” value ([7]; pH 4.0) was 44.6 rel. %, the “Pentadecapeptide content decrement (rel. %) in gastric juice at pH = 4.0, 8 hours” value ([7]; pH 4.0) was 38.0 rel. % and the remaining at 0.5 h, 10 mg/5 ml (in vitro; [14]) was 21.4%. The remaining at 0.5 h, 10 mg/5 ml (in vitro; [15]) was 41.7%, the remaining at 1 h [8, 11] was 8.2% and the remaining at 2 h [8, 12] was 2.46%. The remaining at 3 h ([8]; pH 3, Pentadecapeptide content decrement (rel. %) in gastric juice at pH = 3.0, 3.0 hours, pH 3.0, 3.0 h) was 2.5% and the remaining at 3 h [8, 13] was 72.5%.

In the case of “Gly Glu Pro Pro Pro Gly Lys Pro Ala Asp Asp Ala Gly Leu Val (GEPPPGKPADDAGLV; also: salts with basic amino acids) [Peptide bepecin]”, the “Toxic changes (LD50, acute, subchronic and chronic toxicity)” value [9] is given as “did not induce any toxic changes”.

For H-GEPPPGKPADDAGLV-OH [Bepecin], the Coagulation parameters [10] was “does not affect the coagulation parameters by itself”.
